The assay concerns the target T1, CCDC6-RET (Homo sapiens, UniProt P07949+Q16204+Q96SW2).
T1 construct: CCDC6 (natural N-terminal fusion partner, UniProt Q16204); endogenous in cells; host or cells: TPC-1 (parental, papillary thyroid carcinoma)
In words: Cellular RET degradation, AlphaLISA, TPC-1 cell line. As to conditions: for Dmax: TPC1, human, 24 h, read-out: Cell Density TPC-1/CCDC6-RET Ymax %; for DC50: read-out: Cell Density TPC-1/CCDC6-RET DC50, half-maximal degradation concentration, TPC-1 (CCDC6-RET), 24 hrs. The class given is cell-based. The procedure, abridged: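 Luminescent AlphaLISA read of RET abundance in lysates after 24 h compound exposure (37 °C, 2% FBS DMEM) of CCDC6-RET-bearing TPC-1 cells. % degradation relative to DMSO (high) and media (low) controls, fitted to 4-parameter logistic curve for DC50 and Ymax.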
In general terms: Bead proximity is the source of the signal in Alpha formats.

T1 sequence (Q16204+P07949 fused): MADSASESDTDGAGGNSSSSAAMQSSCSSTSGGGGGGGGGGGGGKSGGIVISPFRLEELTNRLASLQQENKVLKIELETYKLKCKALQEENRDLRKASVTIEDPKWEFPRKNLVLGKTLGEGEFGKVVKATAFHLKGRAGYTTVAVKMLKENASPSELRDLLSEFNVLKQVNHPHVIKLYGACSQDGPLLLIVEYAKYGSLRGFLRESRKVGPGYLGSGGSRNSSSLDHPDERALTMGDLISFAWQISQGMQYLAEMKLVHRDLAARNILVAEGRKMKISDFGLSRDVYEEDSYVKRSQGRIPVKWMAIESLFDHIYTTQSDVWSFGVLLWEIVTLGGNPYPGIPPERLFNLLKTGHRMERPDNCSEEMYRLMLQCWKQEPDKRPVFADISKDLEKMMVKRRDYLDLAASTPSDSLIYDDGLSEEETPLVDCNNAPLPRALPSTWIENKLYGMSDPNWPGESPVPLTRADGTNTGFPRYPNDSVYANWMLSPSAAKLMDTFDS
T1 sequence (Q96SW2 whole entry, the tested form may be a part): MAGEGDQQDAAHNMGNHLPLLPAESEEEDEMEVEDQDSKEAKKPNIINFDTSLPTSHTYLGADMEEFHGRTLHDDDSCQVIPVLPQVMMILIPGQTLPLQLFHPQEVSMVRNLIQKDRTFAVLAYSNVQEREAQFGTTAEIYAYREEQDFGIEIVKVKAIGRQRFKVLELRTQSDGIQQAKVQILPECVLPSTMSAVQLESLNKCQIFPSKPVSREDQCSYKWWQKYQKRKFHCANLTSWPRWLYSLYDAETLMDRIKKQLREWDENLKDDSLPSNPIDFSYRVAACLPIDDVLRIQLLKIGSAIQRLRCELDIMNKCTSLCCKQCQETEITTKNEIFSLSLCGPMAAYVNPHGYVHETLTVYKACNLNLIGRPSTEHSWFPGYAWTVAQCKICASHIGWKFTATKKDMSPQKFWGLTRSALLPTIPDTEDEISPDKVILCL
T1 sequence (Q16531 whole entry partner, the tested form may be a part): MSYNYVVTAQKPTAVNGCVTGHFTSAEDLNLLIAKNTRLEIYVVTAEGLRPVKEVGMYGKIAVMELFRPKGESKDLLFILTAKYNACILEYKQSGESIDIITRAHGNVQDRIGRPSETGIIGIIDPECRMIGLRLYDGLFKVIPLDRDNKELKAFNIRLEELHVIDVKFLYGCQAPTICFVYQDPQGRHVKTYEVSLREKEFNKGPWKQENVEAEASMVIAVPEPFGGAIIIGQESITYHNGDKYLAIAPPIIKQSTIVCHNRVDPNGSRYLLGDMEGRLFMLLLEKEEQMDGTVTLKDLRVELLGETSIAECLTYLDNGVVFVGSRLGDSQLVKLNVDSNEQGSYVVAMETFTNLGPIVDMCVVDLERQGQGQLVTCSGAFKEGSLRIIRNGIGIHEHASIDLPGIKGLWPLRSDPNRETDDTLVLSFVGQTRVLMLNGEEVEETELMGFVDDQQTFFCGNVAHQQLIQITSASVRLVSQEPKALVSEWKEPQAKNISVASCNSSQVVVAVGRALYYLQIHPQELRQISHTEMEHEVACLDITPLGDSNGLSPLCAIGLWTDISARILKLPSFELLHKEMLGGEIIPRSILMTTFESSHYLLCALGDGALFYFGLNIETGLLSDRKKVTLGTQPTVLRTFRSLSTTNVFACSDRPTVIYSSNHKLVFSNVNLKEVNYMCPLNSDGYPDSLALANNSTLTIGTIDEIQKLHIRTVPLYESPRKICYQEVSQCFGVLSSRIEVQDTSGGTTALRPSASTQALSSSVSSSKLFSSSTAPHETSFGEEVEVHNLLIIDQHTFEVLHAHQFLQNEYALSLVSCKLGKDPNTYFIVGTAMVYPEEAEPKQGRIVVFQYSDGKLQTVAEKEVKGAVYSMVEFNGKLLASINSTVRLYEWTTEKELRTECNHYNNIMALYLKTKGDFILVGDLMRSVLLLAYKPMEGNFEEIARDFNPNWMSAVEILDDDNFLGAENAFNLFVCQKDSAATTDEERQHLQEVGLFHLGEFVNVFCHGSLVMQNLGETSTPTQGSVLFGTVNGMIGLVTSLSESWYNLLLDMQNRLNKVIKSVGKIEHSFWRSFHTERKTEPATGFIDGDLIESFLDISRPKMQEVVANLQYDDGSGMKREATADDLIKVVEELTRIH

As for `CCOc1cc(-c2ccc(N3CCC(CN(C)C(=O)CCCCN4CCC(c5ccc6c(c5)C(=O)N(C5CCC(=O)NC5=O)C6)CC4)(NC(=O)c4cc(F)ccc4F)CC3)nc2)c2c(C#N)cnn2c1` (stereo not shown) [Example 145, N-[1-(5-{3-cyano-6-ethoxypyrazolo[1,5-a]pyridin-4-yl}pyridin-2-yl)-4-[(5-{4-[2-(2,6-dioxopiperidin-3-yl)-3-oxo-2,3-dihydro-1H-isoindol-5-yl]piperidin-1-yl}-N-methylpentanamido)methyl]piperidin-4-yl]-2,5-difluorobenzamide], the Dmax is 60 to 90% and the DC50 fell in the range of 2 to 10 nM.
With `CCOc1cc(-c2ccc(N3CCC(CN4CCN(C5CC6(CC(C(=O)N7CCN(c8ccc9c(c8)CN(C8CCC(=O)NC8=O)C9=O)CC7)C6)C5)CC4)(NC(=O)c4cc(F)ccc4F)CC3)nc2)c2c(C#N)cnn2c1` (stereo not shown) [Example 94, N-[1-(5-{3-cyano-6-ethoxypyrazolo[1,5-a]pyridin-4-yl}pyridin-2-yl)-4-{[4-(6-{4-[2-(2,6-dioxopiperidin-3-yl)-1-oxo-2,3-dihydro-1H-isoindol-5-yl]piperazine-1-carbonyl}spiro[3.3]heptan-2-yl)piperazin-1-yl]methyl}piperidin-4-yl]-2,5-difluorobenzamide], the Dmax was in the range of 60 to 90% and the DC50 lay within 2 to 10 nM.
`CCOc1cc(-c2ccc(N3CCC(CN4CCN(CCC(=O)N5CCC(c6ccc7c(c6)C(=O)N(C6CCC(=O)NC6=O)C7=O)CC5)CC4)(NC(=O)c4cc(F)ccc4F)CC3)nc2)c2c(C#N)cnn2c1` (stereo not shown) [Example 117, N-[1-(5-{3-cyano-6-ethoxypyrazolo[1,5-a]pyridin-4-yl}pyridin-2-yl)-4-{[4-(3-{4-[2-(2,6-dioxopiperidin-3-yl)-1,3-dioxo-2,3-dihydro-1H-isoindol-5-yl]piperidin-1-yl}-3-oxopropyl)piperazin-1-yl]methyl}piperidin-4-yl]-2,5-difluorobenzamide]: the Dmax was > 90% and the DC50 fell in the range of 2 to 10 nM.
The corresponding values for `CCOc1cc(-c2ccc(N3CCC(CN4CCN(C(=O)CCCN5CCN(c6ccc7c(N8CCC(=O)NC8=O)nn(C)c7c6)CC5)CC4)(NC(=O)c4cc(F)ccc4F)CC3)nc2)c2c(C#N)cnn2c1` [Example 43, N-(1-(5-(3-cyano-6-ethoxypyrazolo[1,5-a]pyridin-4-yl)pyridin-2-yl)-4-((4-(4-(4-(3-(2,4-dioxotetrahydropyrimidin-1(2H)-yl)-1-methyl-1H-indazol-6-yl)piperazin-1-yl)butanoyl)piperazin-1-yl)methyl)piperidin-4-yl)-2,5-difluorobenzamide] are > 90% and < 2 nM.
The corresponding values for `CCOc1cc(-c2ccc(N3CCC(CN4CCN(C(=O)CCCCNC(=O)COc5cccc6c5CN(C5CCC(=O)NC5=O)C6=O)CC4)(NC(=O)c4cc(F)ccc4F)CC3)nc2)c2c(C#N)cnn2c1` (stereo not shown) [Example 26, N-[1-(5-{3-cyano-6-ethoxypyrazolo[1,5-a]pyridin-4-yl}pyridin-2-yl)-4-({4-[5-(2-{[2-(2,6-dioxopiperidin-3-yl)-1-oxo-2,3-dihydro-1H-isoindol-4-yl]oxy}acetamido)pentanoyl]piperazin-1-yl}methyl)piperidin-4-yl]-2,5-difluorobenzamide] are > 90% and 2 to 10 nM.
For `CCOc1cc(-c2ccc(N3CCC(COCCN4CCN(C(=O)CCN5CCN(c6ccc7c(c6)CN(C6CCC(=O)NC6=O)C7=O)CC5)CC4)(NC(=O)c4cc(F)ccc4F)CC3)nc2)c2c(C#N)cnn2c1` (stereo not shown) [Example 34, N-[1-[5-(3-cyano-6-ethoxy-pyrazolo[1,5-a]pyridin-4-yl)-2-pyridyl]-4-[2-[4-[3-[4-[2-(2,6-dioxo-3-piperidyl)-1-oxo-isoindolin-5-yl]piperazin-1-yl]propanoyl]piperazin-1-yl]ethoxymethyl]-4-piperidyl]-2,5-difluoro-benzamide] the same measures were > 90% and 10 to 100 nM.
`CCOc1cc(-c2ccc(N3CCC(CN(C)C(=O)CCCCCCN4CCC(c5ccc6c(c5)C(=O)N(C5CCC(=O)NC5=O)C6)CC4)(NC(=O)c4cc(F)ccc4F)CC3)nc2)c2c(C#N)cnn2c1` (stereo not shown) [Example 146, N-[1-(5-{3-cyano-6-ethoxypyrazolo[1,5-a]pyridin-4-yl}pyridin-2-yl)-4-[(7-{4-[2-(2,6-dioxopiperidin-3-yl)-3-oxo-2,3-dihydro-1H-isoindol-5-yl]piperidin-1-yl}-N-methylheptanamido)methyl]piperidin-4-yl]-2,5-difluorobenzamide]: the Dmax was > 90% and the DC50 was 10 to 100 nM.
For `CCOc1cc(-c2ccc(N3CCC(CN(C(=O)CCCCCCN4CCN(c5ccc6c(c5)CN(C5CCC(=O)NC5=O)C6=O)CC4)C(C)C)(NC(=O)c4cc(F)ccc4F)CC3)nc2)c2c(C#N)cnn2c1` (stereo not shown) [Example 165, N-[1-(5-{3-cyano-6-ethoxypyrazolo[1,5-a]pyridin-4-yl}pyridin-2-yl)-4-[(7-{4-[2-(2,6-dioxopiperidin-3-yl)-1-oxo-2,3-dihydro-1H-isoindol-5-yl]piperazin-1-yl}-N-(propan-2-yl)heptanamido)methyl]piperidin-4-yl]-2,5-difluorobenzamide] the same measures were > 90% and < 2 nM.
For `CCOc1cc(-c2ccc(N3CCC(COCc4cn(CCCCCCN5CCN(c6ccc7c(c6)CN(C6CCC(=O)NC6=O)C7=O)CC5)nn4)(NC(=O)c4cc(F)ccc4F)CC3)nc2)c2c(C#N)cnn2c1` (stereo not shown) [Example 47, N-[1-[5-(3-cyano-6-ethoxy-pyrazolo[1,5-a]pyridin-4-yl)-2-pyridyl]-4-[[1-[6-[4-[2-(2,6-dioxo-3-piperidyl)-1-oxo-isoindolin-5-yl]piperazin-1-yl]hexyl]triazol-4-yl]methoxymethyl]-4-piperidyl]-2,5-difluoro-benzamide] the same measures were > 90% and 2 to 10 nM.
The corresponding values for `CCOc1cc(-c2ccc(N3CCC(CN4CCC5(CC4)CCN(C(=O)CCN4CCN(c6ccc7c(c6)CN(C6CCC(=O)NC6=O)C7=O)CC4)CC5)(NC(=O)c4cc(F)ccc4F)CC3)nc2)c2c(C#N)cnn2c1` (stereo not shown) [Example 87, N-[1-(5-{3-cyano-6-ethoxypyrazolo[1,5-a]pyridin-4-yl}pyridin-2-yl)-4-{[9-(3-{4-[2-(2,6-dioxopiperidin-3-yl)-1-oxo-2,3-dihydro-1H-isoindol-5-yl]piperazin-1-yl}propanoyl)-3,9-diazaspiro[5.5]undecan-3-yl]methyl}piperidin-4-yl]-2,5-difluorobenzamide] are > 90% and 2 to 10 nM.
Regarding `CCOc1cc(-c2ccc(N3CCC(CN4CCN(C(=O)CCN5CCN(c6ccc7c(N8CCC(=O)NC8=O)nn(C)c7c6)CC5)CC4)(NC(=O)c4cc(F)ccc4F)CC3)nc2)c2c(C#N)cnn2c1` [Example 39, N-(1-(5-(3-cyano-6-ethoxypyrazolo[1,5-a]pyridin-4-yl)pyridin-2-yl)-4-((4-(3-(4-(3-(2,4-dioxotetrahydropyrimidin-1(2H)-yl)-1-methyl-1H-indazol-6-yl)piperazin-1-yl)propanoyl)piperazin-1-yl)methyl)piperidin-4-yl)-2,5-difluorobenzamide], the Dmax was 60 to 90% and the DC50 is < 2 nM.

The values above are taken from patent US20260356830A1, “COMPOUNDS FOR MODULATING RET PROTEIN” (Bristol-Myers Squibb Company, priority 2022, published 2026).
